The results in this text go back to article PMC5354587, “Ergosterone-coupled Triazol molecules trigger mitochondrial dysfunction, oxidative stress, and acidocalcisomal Ca^2+ release in Leishmania mexicana promastigotes” (Microbial Cell, 2015).

Read-outs that look alike come from different tables or passages of the source. Where only a bound is given, the exact number is not on record here.

Assay type in all cases: cell-based
Experiment [1] deals with Leishmania mexicana promastigotes. Briefly: Half-inhibitory concentration on parasites, modified MTT method. The note with it: for IC50: read-out: IC50 on L. mexicana promastigotes; for growth inhibition on promastigotes: concentrations even higher than 100 μM; for Selectivity index: promastigotes compared to human dermic fibroblasts. The method, then: Parasites were treated with different concentrations of the synthesized compounds for 48 hours to determine their cytotoxic effect. A dose dependent growth inhibition was observed after this time.
(§1) Promastigotes of Leishmania mexicana Bel 21 strain were cultured at 26°C in Liver Infusion Tryptone (LIT) medium supplemented with 10% fetal bovine serum (Internegocios). Primary cultures of human dermic fibroblasts were performed at 37°C in DMEN medium (Sigma) supplemented with 10% fetal bovine serum in a CO2 incubator at 5% CO2.
(§2) To determine the IC50 in parasites and human fibroblasts the protocol described by was followed. Briefly, a suspension of 2 x 10^6 parasites per mL^-1 or 5 x 10^3 fibroblasts per well were transferred into 96 well plates and different concentrations of the compounds were added. Plates were incubated under the corresponding culture conditions for 48 or 72 hours for L. mexicana or human fibroblasts, respectively. Thereafter, parasites plates were centrifuged prior to the elimination of the supernatant. Cell viability was measured by the modified MTT method, where cells were incubated with the MTT substrate at 0.2 mg x mL^-1 for 4 hours. Colored crystals formed were solubilized in DMSO and absorbance was measured at 570 nm. IC50 was obtained from a dose response curve using the software OriginLab Pro 6.0^©.
On the technique in general: Tetrazolium dyes change colour on reduction, which living cells bring about.

In experiment [2] the test system is human dermic fibroblasts. The experiment is described as follows: Half-inhibitory concentration on human fibroblasts, modified MTT method. The note with it: 72 hours. The method, then:
as §1, §2

In experiment [3] the test system is Leishmania mexicana promastigotes. The experiment is described as follows: Mitochondrial membrane potential, Mitotracker Red CMXROS, flow cytometry. As to the method: In order to determine the energetic state of the mitochondrion after parasites treatment, the compound Mitotraker Red CMXROS was used. As described in the Materials and Methods section, parasites were treated for 6, 16, 24, and 48 hours with each molecule at its IC50, then incubated with Mitotraker Red CMXROS (50 nM) for 30 minutes under culture conditions, and finally analyzed by flow cytometry. […] Additionally, to rule out if Erg itself (the non-azole fraction of the conjugates) could be responsible for this hyperpolarization, parasites were treated with this compound and ΔΨmit was monitored for up to 48 hours by flow cytometry.
Mitotracker CMX Red(Invitrogen) was used to determine the mitochondrial membrane potential (Ψmit) of treated parasites. After 6, 16, 24, and 48 hours treatment, cells were incubated in culture medium with 50 nM Mitotracker CMX Red for 30 minutes at 26°C in the dark. Thereafter, parasites were washed twice with PBS, resuspended in 1 mL buffer, and analyzed using a cytometer (Beckman Coulter). Parasites incubated with valinomycin (500 nM for 30 minutes) were used as positive control. To evaluate the effect of ergosterone coupled molecules on the mitochondrial membrane potential immediately after molecule addition we used the fluorophore rhodamine-123, a mitochondrion-specific cationic dye, which distributes across the inner mitochondrial membranes strictly according to their membrane potential, as described before. Briefly, 1 x 10^7 parasites were washed twice with rhodamine 123 loading buffer (20 mM Tris-HCl, 130 mM KCl, 1 mM MgCl2, and 2 mM KH2PO4) and incubated with 20 μM rhodamine 123 for 45 minutes at 29°C under agitation. Samples were washed twice, resuspended in 500 μL of the same buffer, and transferred to a quartz cuvette. Fluorescence (ex 488 nm and em 530 nm) was registered in a Hitachi F-7000 Spectrofluorimeter. FCCP was used as control for mitochondrial membrane depolarization.
In general terms: Flow cytometry measures light scatter and fluorescence of single cells or particles in a stream.

Experiment [4] shares this test system. Briefly: Reactive oxygen species (superoxide) determination with dihydroethidium. The note with it: Erg-GTr/Erg-GTr2 treated cells; data not shown. As to the method: To evaluate the intracellular level of reactive oxygen species (ROS) after Erg-GTr or Erg-GTr2 treatment, parasites were incubated with dihydroethidium, which become oxidized in the presence of the superoxide anion to form the fluorescent DNA-intercalating agent ethidium, i.e. the emitted fluorescence is proportional to the amount of ROS present. Figure 6A represents a ROS production kinetics analysis performed between 6 and 48 hours post-treatment with both molecules. […] In fact, ROS levels increased already during the first 6 hours of treatment when compared with control cells, which maintained a ROS level lower than 2% throughout the whole kinetic study.
Figure 6 FIGURE 6: Superoxide production after Erg-GTr or Erg-GTr2 treatment. Parasites were treated with 1.4 μM Erg-GTr or 2.3 μM Erg-GTr2 or DMSO (control cells), harvested after different time points and then prepared to measure intracellular superoxide using dyhidroethidium. (A) Superoxide production kinetics in control and treated parasites. […] (B) Representative FACS histograms showing the superoxide-sensitive fluorescence of control and treated promastigotes after 24 hours incubation. The percentages were determined using the WinMDI software. […]
Dihydroethidium (Invitrogen) was used to detect the intracellular level of superoxide anion. […] Thereafter, samples were washed with PBS and immediately analyzed in a Beckman Coulter Cytometer.

Experiment [5] has the same test system. The experiment is described as follows: Alkalinization of acidocalcisomes, acridine orange. The note with it: Erg-GTr 1.4 μM or Erg-GTr2 2.4 μM; nigericin 2 μM as control. From the text:
Leishmania can store Ca^2+ in different compartments like the endoplasmic reticulum, the mitochondrion, and the acidocalcisomes. The major Ca^2+ reservoir is represented by this last organelle. In order to analyze if the [Ca^2+]cyt increase is due to its release from acidocalcisomes, parasites were charged with acridine orange and assayed fluorimetrically. Since acridine orange accumulates in acidic compartments, it allows detection of alkalinization.
To evaluate the effect of ergosterone coupled molecules on the Ca^2+ reservoir organelle acidocalcisome, parasites were stained with acridine orange as described previously. Briefly, 1 x 10^7 parasites were washed twice with loading buffer (20 mM Tris-HCl, 130 mM KCl, 1 mM MgCl2, and 2 mM KH2PO4) and incubated for 5 minutes with acridine orange (5 μM). Samples were washed twice, resuspended in 500 μL of the same buffer, and transferred to a stirred quartz cuvette at 29°C. Fluorescence (ex 488 nm and em 530 nm) was registered in a Hitachi F-7000 Spectrofluorimeter. Nigericin was used as control for acidocalcisome alkalinization.

Regarding `C[N+](C)(C)CC(=O)NN` [GT, hydrazinocarbonylmethyl-trimethyl-ammonium chloride, reference compound], in experiment [1] (Leishmania mexicana, 48 h), the IC50 (usually the point on the concentration scale where inhibition reaches its midpoint) is over 200 µM. Besides, in experiment [1] (48 hours), the “growth inhibition on promastigotes” value is on record as “did not show inhibition”.
With `CC(C)C(C)C=CC(C)C1CCC2C3=CC=C4CC(O)CCC4(C)C3CCC21C` (stereo not shown) [Ergosterol, 10,13-dimethyl-17-(1,4,5-trimethyl-hex-2-enyl)-2,3,4,9,10,11,12,13,14,15,16,17-dodecahydro-1H-cyclopenta[a]phenanthren-3-ol, reference compound], the IC50 in experiment [2] (Fibroblast) is 27 ± 3.5 µM; in experiment [1] (Leishmania mexicana, 48 h), 33.8 ± 4.7 µM. This compound also displayed a Selectivity index in experiment [1] of 0.8.
With `CC(=O)N[C@@H](CS)C(=O)O` [N-acetyl-cysteine, reference compound], in experiment [3] (Erg-GTr/Erg-GTr2 treated cells, data not shown), the “effect of ROS scavenger on mitochondrion hyperpolarization” value was “did not prevent”. For the same compound, the “effect of ROS scavenger on ROS formation” value in experiment [4] is given as “revert partially”.
`CC(C)C(C)C=CC(C)C1CCC2C3=CC(=O)C4(O)CC(=O)CCC4(C)C3CCC21C` (stereo not shown) [Ergosterone, 5-hydroxy-10,13-dimethyl-17-(1,4,5-trimethyl-hex-2-enyl)-1,4,5,9,10,11,12,13,14,15,16,17-dodecahydro-2H-cyclopenta[a]phenanthrene-3,6-dione]: the IC50 turned out to be 28.3 ± 8.5 µM in experiment [2] (Fibroblast) and 9 ± 0.7 µM in experiment [1] (Leishmania mexicana, 48 h). In addition, in experiment [3] (treatment up to 48 hours, flow cytometry), the “effect on inner mitochondrial membrane potential (ΔΨmit)” value is on record as “No differences”. Also, the Selectivity index in experiment [1] turned out to be 3.1.
Regarding “[5-hydroxy-10-methyl-3-oxo-17-(1,4,5-trimethyl-hex-2-enyl)-1,2,3,4,5,9,10,11,12,13,14,15,16,17-tetradecahydro-cyclopenta[a]phenanthren-6-ylidene-hydrazinocarbonylmethyl]-trimethyl-ammonium chloride [Erg-GT]”, the IC50 came out at 36.4 µM in experiment [2] and 10.4 ± 0.2 µM in experiment [1] (48 hours, MTT). This compound also had a Selectivity index in experiment [1] of 3.5.
Consider “1-[5-hydroxy-10-methyl-3-oxo-17-(1,4,5-trimethyl-hex-2-enyl)-1,2,3,4,5,9,10,11,12,13,14,15,16,17-tetradecahydro-cyclopenta[a]phenanthren-6-ylidene-hydrazinocarbonyl]-pyridinium chloride [Erg-GP]”, for which the IC50 in experiment [2] came to 44.5 µM; in experiment [1] (48 hours, MTT), 42.4 ± 2.8 µM. Moreover, the Selectivity index in experiment [1] was found to be 1.0.
For `NNC(=O)[n+]1ccccc1.[Cl-]` [GP, 1-hydrazinocarbonyl-pyridinium chloride, reference compound], the IC50 in experiment [1] (Leishmania mexicana, 48 h) is over 200 µM. For the same compound, the “growth inhibition on promastigotes” value in experiment [1] (48 hours) is listed as “did not show inhibition”.
In the same order, the values of `NNC(=O)n1cnnc1` [GTr, [1,2,4]triazole-4-carboxylic acid hydrazide] are 158 µM and “did not show inhibition”.
With `CO[C@@H]1C[C@@H](C[C@H]2CC[C@H](C)[C@H]([C@@H](C)C(=O)O)O2)O[C@]2(O[C@](C)([C@H]3CC[C@@](C)([C@@H]4O[C@@H]([C@H]5O[C@@](O)(CO)[C@H](C)C[C@@H]5C)C[C@@H]4C)O3)C[C@H]2C)[C@@H]1C` [nigericin, reference compound], the “acridine orange fluorescence (acidocalcisome alkalinization)” value in experiment [5] is recorded as “further reduction of the acidity”.
